Assays:
HuT78 cells = experiment: TM7SF3 C>U RNA editing in HuT78 cells treated with mitochondrial inhibitors or thapsigargin; assay type: cell-based, human; conditions: HuT78, normoxia; for RNA editing level (TM7SF3): 0.5×10^6 cells per 500 μl, inhibitor 1 μM
Text: We tested the effect of inhibitors of mitochondrial complex II by atpenin A5 (AtA5) and of the complex III by myxothiazol (MXT) on RNA editing in HuT78 cells cultured in normoxia. Additionally, to test whether endoplasmic reticulum (ER) stress can also induce RNA editing, we treated the cells with Thapsigargin (Tg). Tg is considered to induce ER stress by raising intracellular calcium levels and lowers the ER calcium levels by specifically inhibiting the endoplasmic reticulum Ca^++ ATPase, resulting in the accumulation of unfolded proteins and an increased accumulation eIF-2α phosphorylated at Ser 51 (FIGS. 33c and 35b). To test the effect of hypoxic stress alone on HuT78 cells, we reduced the cell density to avoid cellular crowding and cultured the cells at an intermediate density of 0.5×10^6 cells per 500 μl per well in 24 well plates with or without the chemical inhibitors in normoxia, and hypoxia alone for one or two days. Under these conditions, we determined RNA editing level and the stabilization of HIF-1α in these cells. […] RNA editing levels increased to approximately 30% in cells treated with MXT, AtA5 or hypoxia alone on day 2. […] Furthermore, HIF-1α was stabilized only when the cells were subjected to hypoxia but not in normoxia in the presence or absence of the mitochondrial inhibitors (FIG. 32c).
(§1) For testing the mitochondrial inhibitors, HuT78 and NK-92 cells were cultured at […] cells per 0.5 ml in 24 well plates in normoxia with or without AtA5 and MXT or hypoxia alone for 2 days at 37° C.
(§2) Human IFN-γ was obtained from PeproTech and used at a concentration of 50 ng/ml. AtA5 (Cayman chemical #11898) and MXT (Sigma Aldrich #T5580) was used at a concentration of 1 μM.
(§3) Total RNA was isolated and reverse transcribed to generate cDNAs. DNA primers used for PCR were obtained from Integrated DNA Technologies and are noted in Table 6. Primers used for PCR of cDNA templates were designed such that the amplicons spanned multiple exons. […] To quantify RNA editing level, the major and minor chromatogram peak heights at putative edited nucleotides were quantified with Sequencher 5.0/5.1 software (Gene Codes, MI). […] For quantitative PCR to assess APOBEC3G and APOBEC3F gene expression, reactions using LightCycler™ 480 Probes Master and SYBR™ Green I dye were performed on a LightCycler™ 480 System (Roche). Quantification cycle (Cq) values were calculated by the instrument software using the maximum second derivative method, and the mean Cq value of duplicate PCR reactions was used for analysis.

NK-92 cells = experiment: TM7SF3 C>U RNA editing in NK-92 cells treated with mitochondrial inhibitors; assay type: cell-based, human; conditions: NK-92, normoxia, intermediate density, 24 well plates, inhibitor 1 μM, 2 days
Protocol: We treated NK-92 cells with normoxia with or without the mitochondrial inhibitors (AtA5 or MXT) or hypoxia alone at intermediate density in 24 well plates for 2 days. […] The reason behind the difference in hypoxia induced RNA editing level of HuT78 and NK-92 cells may be due to metabolic differences between the two cell lines.
as §1, §2
as §3, with “cDNAs.” for “cDNAs. DNA primers used for PCR were obtained from Integrated DNA Technologies and are noted in Table 6. Primers used for PCR of cDNA templates were designed such that the amplicons spanned multiple exons.”

APOBEC3A = target: T1, APOBEC3A (Homo sapiens, UniProt P31941); experiment: In vitro SDHB RNA editing assay with purified APOBEC3A; assay type: biochemical; conditions: chelation of zinc with 10 μM 1,10-phenanthroline, 2 hours at 37° C
T1 construct: made in house; host or cells: Rosetta 2(DE3)pLysS E. coli; pET21 construct from Dr. Jinwoo Ahn
T1 sequence (P31941 whole entry): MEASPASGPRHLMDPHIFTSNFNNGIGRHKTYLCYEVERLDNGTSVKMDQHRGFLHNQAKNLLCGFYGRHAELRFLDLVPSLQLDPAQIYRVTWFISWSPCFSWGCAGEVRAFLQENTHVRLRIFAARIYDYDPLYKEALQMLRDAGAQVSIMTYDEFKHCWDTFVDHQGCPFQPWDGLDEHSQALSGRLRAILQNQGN
Protocol: Rosetta™ 2(DE3)pLysS E. coli (EMD Millipore®) transformed with a bacterial expression construct for C-His6-tagged APOBEC3A and grown in Luria broth at 37° C. were induced for expression of the recombinant protein with 0.3 mM isopropyl β-D-1-thiogalactopyranoside (IPTG) and cultured overnight at 18° C. Harvested cells were lysed with a French pressure cell (American Instrument Corporation®, Hartland, Wis.) and Ni-NTA His.Bind Resin™ (EMD Millipore®) was used as per manufacturer's instructions to purify APOBEC3A protein from the lysates by affinity chromatography. Isolated protein was concentrated using an Amicon™ Ultra-4 Centrifugal Filter Unit with Ultracel-3 membrane (EMD Millipore®; nominal molecular weight limit of 3 kDa). The concentrated protein was stored in 25 mM Tris (pH 8.0) with 50 mM NaCl, 1 mM DTT, 5% v/v glycerol, and 0.02% w/v sodium azide.
Whole cell lysates of 293T transfectants were prepared using lysis buffer containing 0.2% Surfact-Amps™ NP-40 (Thermo Fisher®), 30 mM 4-(2-hydroxyethyl)-1-piperazine-ethane-sulfonic acid (HEPES; pH 7.5), 100 mM KCl, 25 mM NaCl, 1.5 mM MgCl2, 1 mM DTT, and 0.5× Halt™ protease and phosphatase inhibitor cocktail, and stored with 10% v/v glycerol at −80° C. […]

| Compound | RNA editing level (TM7SF3) (HuT78 cells; day 2) | RNA editing level (TM7SF3) (NK-92 cells) | RNA editing level (TM7SF3) (HuT78 cells; day 1) | c.136C>U editing of SDHB RNA by His6-tagged APOBEC3A (APOBEC3A) | induction of RNA editing (TM7SF3) (HuT78 cells; one or two days) |
| --- | --- | --- | --- | --- | --- |
| COc1[nH]c(=O)c(C(=O)[C@@H](C)C[C@H](C)[C@@H](Cl)CCl)c(O)c1OC [AtA5, atpenin A5] | approximately 30% | ~25% | – | – | – |
| CO/C(=C/C(N)=O)[C@H](C)[C@H](/C=C/c1csc(-c2csc([C@@H](C)/C=C/C=C/C(C)C)n2)n1)OC [MXT, myxothiazol] | approximately 30% | ~25% | approximately 10% | – | – |
| c1cnc2c(c1)ccc1cccnc12 [1,10-phenanthroline] | – | – | – | abolished the editing | – |
| C/C=C(/C)C(=O)O[C@H]1C(C)=C2[C@H]([C@@H]1OC(=O)CCCCCCC)[C@@](C)(OC(C)=O)C[C@H](OC(=O)CCC)[C@@]1(O)[C@H]2OC(=O)[C@@]1(C)O [Tg, Thapsigargin] | – | – | – | – | did not induce RNA editing |
